Results published in patent US20230081426A1, “COMPOUNDS AND METHODS FOR KRAS MODULATION AND INDICATIONS THEREFOR” (Plexxikon Inc., priority 2020, published 2023).
Like-named read-outs stand apart in the source and are kept apart here.

Key:
[1] = target: T1, G12D-mutant human KRAS (amino acid residues 1-188) (Homo sapiens, UniProt P01116, G12D); test: KRAS Binding Disruption Assay (AlphaScreen; biotinylated KRpep-2d analogue or RAF1-RBD), G12D; details: for IC50: geometric mean, read-out: KRAS GMean IC50 (uM) MUTATION: G12D
T1 construct: G12D or G12C-mutant human KRAS (amino acid residues 1-188) with FLAG tag; made in house; host or cells: E. coli
Outline: (§1)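 Mutant KRAS (5-20 nM) incubated 1 h at 25° C with test compound and 5-20 nM biotinylated KRpep-2d analogue or RAF1-RBD in 20 mM HEPES pH 7.5, 100 mM NaCl, 5 mM MgCl2, 0.01% Tween-20, 0.01% BSA.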

[2] = target: T2, G12C-mutant human KRAS (amino acid residues 1-188) (Homo sapiens, UniProt P01116, G12C); test: KRAS Binding Disruption Assay (AlphaScreen; biotinylated KRpep-2d analogue or RAF1-RBD), G12C; details: geometric mean, read-out: KRAS GMean IC50 (uM) MUTATION: G12C
T2 construct: G12D or G12C-mutant human KRAS (amino acid residues 1-188) with FLAG tag; made in house; host or cells: E. coli
Outline: as §1

[3] = target: T3, G12V-mutant human KRAS (amino acid residues 1-188) (Homo sapiens, UniProt P01116, G12V); test: KRAS Binding Competition Assay (AlphaScreen; biotinylated KRpep-2d analogue), G12V; details: geometric mean, read-out: KRAS GMean IC50 (uM) MUTATION: G12V
T3 construct: G12V-mutant human KRAS (amino acid residues 1-188) with FLAG tag was purified from E. coli; made in house; host or cells: E. coli

| Compound | IC50 ([1]; KRAS G12D) | IC50 [2] | IC50 [3] | Improved KRAS G12D Biochemical Potency of Compounds with Bridged vs Non-Bridged R^1 Groups ([1]; Table 3, fold more potent than non-bridged version at the R1 variable) | IC50 ([1]; Table 3, bridged vs non-bridged R1) |
| --- | --- | --- | --- | --- | --- |
| CN1C(=O)SC(CC(=O)N2[C@@H]3CC[C@H]2CN(c2nc(OCC45CCCN4CCC5)nc4c(F)c(-c5cc(O)cc6ccccc56)ccc24)C3)C1=O (stereo partly drawn) [P-0412, 5-(2-((1R,5S)-3-(8-fluoro-7-(3-hydroxynaphthalen-1-yl)-2-((tetrahydro-1H-pyrrolizin-7a(5H)-yl)methoxy)quinazolin-4-yl)-3,8-diazabicyclo[3.2.1]octan-8-yl)-2-oxoethyl)-3-methylthiazolidine-2,4-dione] | 0.0001 to 10 µM | 0.0001 to 10 µM | 0.0001 to 10 µM | – | – |
| N#CCC(=O)N1[C@@H]2CC[C@H]1CN(c1nc(OC[C@@]34CCCN3C[C@H](F)C4)nc3c(F)c(-c4cc(O)cc5cccc(Cl)c45)ccc13)C2 [P-0504, 3-((1R,5S)-3-(7-(8-chloro-3-hydroxynaphthalen-1-yl)-8-fluoro-2-(((2R,7aS)-2-fluorotetrahydro-1H-pyrrolizin-7a(5H)-yl)methoxy)quinazolin-4-yl)-3,8-diazabicyclo[3.2.1]octan-8-yl)-3-oxopropanenitrile] | 0.0001 to 10 µM | 0.0001 to 10 µM | 0.0001 to 10 µM | – | – |
| O=C1NC(=O)C(CC(=O)N2[C@@H]3CC[C@H]2CN(c2nc(OCC45CCCN4CCC5)nc4c(F)c(-c5cc(O)cc6ccccc56)ccc24)C3)N1 (some centres unmarked) [P-0366] | 0.0001 to 10 µM | 0.0001 to 10 µM | 0.0001 to 10 µM | – | – |
| CN1CCC[C@H]1COc1nc(N2C[C@H]3CC[C@@H](C2)N3)c2cc(Cl)c(-c3cc(O)cc4ccccc34)c(F)c2n1 [P-0001, 4-(4-((1R,5S)-3,8-diazabicyclo[3.2.1]octan-3-yl)-6-chloro-8-fluoro-2-(((S)-1-methylpyrrolidin-2-yl)methoxy)quinazolin-7-yl)naphthalen-2-ol] | 0.0001 to 10 µM | 0.0001 to 10 µM | 10 to 100 µM | P-0001 is about 70 times more potent than its non- bridged version at the R^1 variable. | 0.016 µM |
| NS(=O)(=O)NCC(=O)N1[C@@H]2CC[C@H]1CN(c1nc(OCC34CCCN3CCC4)nc3c(F)c(-c4cc(O)cc5ccccc45)ccc13)C2 [P-0408, N-(2-((1R,5S)-3-(8-fluoro-7-(3-hydroxynaphthalen-1-yl)-2-((tetrahydro-1H-pyrrolizin-7a(5H)-yl)methoxy)quinazolin-4-yl)-3,8-diazabicyclo[3.2.1]octan-8-yl)-2-oxoethyl)aminosulfonamide] | 0.0001 to 10 µM | 0.0001 to 10 µM | 0.0001 to 10 µM | – | – |
| Oc1cc(-c2ccc3c(N4C[C@H]5CC[C@@H](C4)N5)nc(OCC45CCCN4CCC5)nc3c2F)c2c(Cl)cccc2c1 [P-0136, 4-(4-((1R,5S)-3,8-diazabicyclo[3.2.1]octan-3-yl)-8-fluoro-2-((tetrahydro-1H-pyrrolizin-7a(5H)-yl)methoxy)quinazolin-7-yl)-5-chloronaphthalen-2-ol] | 0.0001 to 10 µM | 0.0001 to 10 µM | 0.0001 to 10 µM | – | – |
| Cc1c(-c2cc(O)cc3ccccc23)ccc2c(N3C[C@H]4CC[C@@H](C3)N4)nc(OCC34CCCN3CCC4)nc12 [P-0015, 4-(4-((1R,5S)-3,8-diazabicyclo[3.2.1]octan-3-yl)-8-methyl-2-((tetrahydro-1H-pyrrolizin-7a(5H)-yl)methoxy)quinazolin-7-yl)naphthalen-2-ol] | 0.0001 to 10 µM | 0.0001 to 10 µM | 0.0001 to 10 µM | – | – |
| Oc1cc(-c2ncc3c(N4C[C@H]5CC[C@@H](C4)N5)nc(OCC45CCCN4CCC5)nc3c2F)c2ccccc2c1 [P-0055, 4-(4-((1R,5S)-3,8-diazabicyclo[3.2.1]octan-3-yl)-8-fluoro-2-((tetrahydro-1H-pyrrolizin-7a(5H)-yl)methoxy)pyrido[4,3-d]pyrimidin-7-yl)naphthalen-2-ol] | 0.0001 to 10 µM | 0.0001 to 10 µM | 0.0001 to 10 µM | – | – |
| Cc1cccc2cc(O)cc(-c3ccc4c(N5C[C@H]6CC[C@@H](C5)N6)nc(OCC56CCCN5CCC6)nc4c3F)c12 [P-0085, 4-(4-((1R,5S)-3,8-diazabicyclo[3.2.1]octan-3-yl)-8-fluoro-2-((tetrahydro-1H-pyrrolizin-7a(5H)-yl)methoxy)quinazolin-7-yl)-5-methylnaphthalen-2-ol] | 0.0001 to 10 µM | 0.0001 to 10 µM | 0.0001 to 10 µM | – | – |

Further lines, with some results ahead:

| IC50 ([1]; KRAS G12D) | IC50 [2] | IC50 [3] | Compound | Improved KRAS G12D Biochemical Potency of Compounds with Bridged vs Non-Bridged R^1 Groups ([1]; Table 3, fold more potent than non-bridged version at the R1 variable) | IC50 ([1]; Table 3, bridged vs non-bridged R1) |
| --- | --- | --- | --- | --- | --- |
| 0.0001 to 10 µM | 0.0001 to 10 µM | 0.0001 to 10 µM | CN1CCC[C@H]1COc1nc(N2C[C@H]3CC[C@@H](C2)N3)c2cc(C#N)c(-c3cc(O)cc4ccccc34)c(F)c2n1 [P-0021, 4-((1R,5S)-3,8-diazabicyclo[3.2.1]octan-3-yl)-8-fluoro-7-(3-hydroxynaphthalen-1-yl)-2-(((S)-1-methylpyrrolidin-2-yl)methoxy)quinazoline-6-carbonitrile] | – | – |
| 0.0001 to 10 µM | 0.0001 to 10 µM | 0.0001 to 10 µM | NC1=NC(=O)C(CC(=O)N2[C@@H]3CC[C@H]2CN(c2nc(OCC45CCCN4CCC5)nc4c(F)c(-c5cc(O)cc6ccccc56)ccc24)C3)S1 (stereo partly drawn) [P-0384, 2-amino-5-(2-((1R,5S)-3-(8-fluoro-7-(3-hydroxynaphthalen-1-yl)-2-((tetrahydro-1H-pyrrolizin-7a(5H)-yl)methoxy)quinazolin-4-yl)-3,8-diazabicyclo[3.2.1]octan-8-yl)-2-oxoethyl)thiazol-4 (5H)-one] | – | – |
| 0.0001 to 10 µM | 0.0001 to 10 µM | 0.0001 to 10 µM | CN1CCC[C@H]1COc1nc(N2C[C@H]3CC[C@@H](C2)N3)c2ccc(-c3cc(O)cc4ccccc34)c(F)c2n1 [P-0044, 4-(4-((1R,5S)-3,8-diazabicyclo[3.2.1]octan-3-yl)-8-fluoro-2-(((S)-1-methylpyrrolidin-2-yl)methoxy)quinazolin-7-yl)naphthalen-2-ol] | – | – |
| 0.0001 to 10 µM | 0.0001 to 10 µM | 0.0001 to 10 µM | CO[C@@H]1C[C@@H](COc2nc(N3C[C@H]4CC[C@@H](C3)N4)c3ccc(-c4cc(O)cc5ccccc45)cc3n2)N(C)C1 [P-0060, 4-(4-((1R,5S)-3,8-diazabicyclo[3.2.1]octan-3-yl)-2-(((2S,4R)-4-methoxy-1-methylpyrrolidin-2-yl)methoxy)quinazolin-7-yl)naphthalen-2-ol] | – | – |
| 0.0001 to 10 µM | 0.0001 to 10 µM | 10 to 100 µM | CN1CCC[C@H]1COc1nc(N2CC3CCC(C2)N3C(=O)Cc2ccc(N)cc2)c2ccc(-c3cc(O)cc4ccccc34)cc2n1 [P-0115] | – | – |
| 0.0001 to 10 µM | 0.0001 to 10 µM | 0.0001 to 10 µM | O=C(N[C@@H]1CCNC1)N1[C@@H]2CC[C@H]1CN(c1nc(OCC34CCCN3CCC4)nc3cc(-c4cc(O)cc5ccccc45)ccc13)C2 [P-0122, (1R,5S)-3-(7-(3-hydroxynaphthalen-1-yl)-2-((tetrahydro-1H-pyrrolizin-7a(5H)-yl)methoxy)quinazolin-4-yl)-N-((R)-pyrrolidin-3-yl)-3,8-diazabicyclo[3.2.1]octane-8-carboxamide] | – | – |
| 0.0001 to 10 µM | 0.0001 to 10 µM | 0.0001 to 10 µM | O=C(N[C@H]1CCNC1)N1[C@@H]2CC[C@H]1CN(c1nc(OCC34CCCN3CCC4)nc3cc(-c4cc(O)cc5ccccc45)ccc13)C2 [P-0123, (1R,5S)-3-(7-(3-hydroxynaphthalen-1-yl)-2-((tetrahydro-1H-pyrrolizin-7a(5H)-yl)methoxy)quinazolin-4-yl)-N-((S)-pyrrolidin-3-yl)-3,8-diazabicyclo[3.2.1]octane-8-carboxamide] | – | – |
| 0.0001 to 10 µM | 0.0001 to 10 µM | 0.0001 to 10 µM | Cn1cc(NC(=O)N2[C@@H]3CC[C@H]2CN(c2nc(OCC45CCCN4CCC5)nc4cc(-c5cc(O)cc6ccccc56)ccc24)C3)cn1 [P-0128, (1R,5S)-3-(7-(3-hydroxynaphthalen-1-yl)-2-((tetrahydro-1H-pyrrolizin-7a(5H)-yl)methoxy)quinazolin-4-yl)-N-(1-methyl-1H-pyrazol-4-yl)-3,8-diazabicyclo[3.2.1]octane-8-carboxamide] | – | – |
| 0.0001 to 10 µM | 0.0001 to 10 µM | 10 to 100 µM | CN1CCN(CCCC(=O)N2[C@@H]3CC[C@H]2CN(c2nc(OC[C@@H]4CCCN4C)nc4cc(-c5cc(O)cc6ccccc56)ccc24)C3)CC1 [P-0119, 1-((1R,5S)-3-(7-(3-hydroxynaphthalen-1-yl)-2-(((S)-1-methylpyrrolidin-2-yl)methoxy)quinazolin-4-yl)-3,8-diazabicyclo[3.2.1]octan-8-yl)-4-(4-methylpiperazin-1-yl)butan-1-one] | – | – |
| 0.0001 to 10 µM | 10 to 100 µM | 10 to 100 µM | CN1CCC[C@H]1COc1nc(N2C[C@H]3CC[C@@H](C2)N3C(=O)Cc2cnccn2)c2ccc(-c3cc(O)cc4ccccc34)cc2n1 [P-0121, 1-((1R,5S)-3-(7-(3-hydroxynaphthalen-1-yl)-2-(((S)-1-methylpyrrolidin-2-yl)methoxy)quinazolin-4-yl)-3,8-diazabicyclo[3.2.1]octan-8-yl)-2-(pyrazin-2-yl)ethan-1-one] | – | – |
| 0.0001 to 10 µM | 10 to 100 µM | 10 to 100 µM | CN1CCC[C@H]1COc1nc(N2CC3CCC2CN3)c2cc(Cl)c(-c3cc(O)cc4ccccc34)c(F)c2n1 (stereo partly drawn) [P-0030, 4-(4-(2,5-diazabicyclo[2.2.2]octan-2-yl)-6-chloro-8-fluoro-2-(((S)-1-methylpyrrolidin-2-yl)methoxy)quinazolin-7-yl)naphthalen-2-ol] | – | – |
| 0.0001 to 10 µM | 10 to 100 µM | 0.0001 to 10 µM | CN1CCC[C@H]1COc1nc(N2C[C@H]3CC[C@@H](C2)N3)c2cc(C(=O)O)c(-c3cc(O)cc4ccccc34)c(F)c2n1 [P-0024, 4-(3,8-Diazabicyclo[3.2.1]octan-3-yl)-8-fluoro-7-(3-hydroxy-1-naphthyl)-2-[[(2S)-1-methylpyrrolidin-2-yl]methoxy]quinazoline-6-carboxylic acid] | – | – |
